Experimental data published in ChEMBL document CHEMBL4052647, “Synthesis and pharmacological evaluation of novel chromone derivatives as balanced multifunctional agents against Alzheimer's disease” (Bioorg Med Chem, 2017).
Activity calls are given as the source filed them. No cut-off for these calls is given here.

What was measured:
physchem [1] = conditions: PAMPA, pH 7.4
physchem [2] = conditions: PAMPA
Homo sapiens = species on record: Homo sapiens; assay: Selectivity index, ratio of IC50 for recombinant human MAO-A expressed in baculovirus infected BTI insect cells to IC50 for recombinant human MAO-B expressed in baculovirus infected BTI insect cells
[3] = biological target: Amyloid-beta precursor protein (Homo sapiens) (UniProt P05067); assay: Inhibition of HFIP-pretreated amyloid beta (1 to 42) (unknown origin) self-induced aggregation at 20 uM after 46 to 48 hrs by thioflavin-T fluorescence assay relative to control
[4] = biological target: T1, Amine oxidase [flavin-containing] A (Homo sapiens, UniProt P21397); assay: Inhibition of recombinant human MAO-A expressed in baculovirus infected BTI insect cells using p-tyramine as substrate pretreated for 15 mins followed by substrate addition after 20 mins by Amplex red reagent based fluorimetric method
T1 sequence (P21397 whole entry): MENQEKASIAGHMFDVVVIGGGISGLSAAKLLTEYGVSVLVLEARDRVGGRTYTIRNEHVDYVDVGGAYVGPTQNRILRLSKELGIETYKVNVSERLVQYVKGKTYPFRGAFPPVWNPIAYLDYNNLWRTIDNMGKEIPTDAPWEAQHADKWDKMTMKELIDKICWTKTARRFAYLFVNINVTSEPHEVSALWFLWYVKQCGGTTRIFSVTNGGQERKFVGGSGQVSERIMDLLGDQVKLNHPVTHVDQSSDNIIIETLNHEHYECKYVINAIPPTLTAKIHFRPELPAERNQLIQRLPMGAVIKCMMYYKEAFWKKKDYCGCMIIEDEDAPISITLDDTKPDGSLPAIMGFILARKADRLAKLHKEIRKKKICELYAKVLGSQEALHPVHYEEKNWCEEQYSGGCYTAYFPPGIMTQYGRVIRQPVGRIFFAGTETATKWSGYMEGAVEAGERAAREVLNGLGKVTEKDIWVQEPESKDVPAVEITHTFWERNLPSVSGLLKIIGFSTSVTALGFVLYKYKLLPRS

[5] = Antioxidant activity assessed as trolox equivalent of […]-induced radical scavenging activity at 1 to 10 uM preincubated for 15 mins followed by AAPH addition measured every minute for 120 mins by ORAC fluorescein assay; format: functional
[6] = biological target: T2, Amine oxidase [flavin-containing] B (Homo sapiens, UniProt P27338); assay: biochemical; format: cell-based
T2 sequence (P27338 whole entry): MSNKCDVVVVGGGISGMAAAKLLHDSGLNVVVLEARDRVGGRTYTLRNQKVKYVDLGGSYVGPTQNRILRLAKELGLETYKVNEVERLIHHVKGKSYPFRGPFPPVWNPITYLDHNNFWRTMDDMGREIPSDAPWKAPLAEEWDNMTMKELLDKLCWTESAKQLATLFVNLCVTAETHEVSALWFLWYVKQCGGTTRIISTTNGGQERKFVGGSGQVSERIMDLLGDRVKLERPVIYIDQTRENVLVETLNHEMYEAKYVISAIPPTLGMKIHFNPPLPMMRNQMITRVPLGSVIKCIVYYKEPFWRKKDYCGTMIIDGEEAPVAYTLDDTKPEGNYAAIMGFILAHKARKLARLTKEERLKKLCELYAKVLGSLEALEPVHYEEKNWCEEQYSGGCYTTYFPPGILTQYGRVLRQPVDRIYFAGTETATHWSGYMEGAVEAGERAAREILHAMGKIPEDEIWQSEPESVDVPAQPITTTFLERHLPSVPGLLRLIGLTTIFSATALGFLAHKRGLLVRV
Description: Inhibition of recombinant human MAO-B expressed in baculovirus infected BTI insect cells using p-tyramine as substrate pretreated for 15 mins followed by substrate addition after 20 mins by Amplex red reagent based fluorimetric method

PC-12 [7] = assay: Cytotoxicity against rat PC12 cells at 20 uM after 24 hrs by MTT assay; format: cell-based; conditions: pc-12, 24 h
[8] = Metal chelating activity assessed as inhibition of Cu2+-induced amyloid beta (1 to 42 residues) aggregation at 50 uM after 24 hrs by thioflavin-T fluorescence assay (reference value: 142%)
[9] = Metal chelating activity of the compound assessed as formation of ferrous-compound complex at 50 uM after 30 mins by UV-vis spectrophotometric method
PC-12 [10] = assay: Neuroprotective activity against H2O2-induced cell death in rat PC12 cells assessed as increase in cell viability at 20 uM pretreated for 24 hrs followed by H2O2 induction after 24 hrs by MTT assay; format: functional, cell-based
[11] = Metal chelating activity assessed as mole fraction of compound required to show 1:1 stoichiometry for Cu2+-compound complex by Job's plot method
PC-12 [12] = assay: Neuroprotective activity against H2O2-induced cell death in rat PC12 cells assessed as increase in cell viability at 10 uM pretreated for 24 hrs followed by H2O2 induction after 24 hrs by MTT assay; format: functional, cell-based
[13] = Metal chelating activity assessed as inhibition of Cu2+-induced amyloid beta (1 to 42 residues) aggregation by measuring reduction in amyloid fibrils at 50 uM […] by uranyl acetate staining based transmission electron microscopic analysis
[14] = Metal chelating activity of the compound assessed as formation of ferric-compound complex at 50 uM after 30 mins by UV-vis spectrophotometric method
[15] = Metal chelating activity of the compound assessed as formation of Cu2+-compound complex at 50 uM after 30 mins by UV-vis spectrophotometric method
[16] = Metal chelating activity of the compound assessed as formation of Cu2+-compound complex at 50 uM after 20 mins by fluorescence emission spectral analysis
[17] = Metal chelating activity of the compound assessed as formation of ferric-compound complex at 50 uM after 20 mins by fluorescence emission spectral analysis
PC-12 [18] = assay: Neuroprotective activity against H2O2-induced oxidative stress in rat PC12 cells assessed as reduction in intracellular reactive oxygen species level after 24 hrs by DCFH-DA probe based flow cytometric analysis; format: functional, cell-based
[19] = Metal chelating activity of the compound assessed as formation of zinc-compound complex at 50 uM after 20 mins by fluorescence emission spectral analysis
PC-12 [20] = assay: Neuroprotective activity against H2O2-induced cell death in rat PC12 cells assessed as increase in cell viability at 1 to 5 uM pretreated for 24 hrs followed by H2O2 induction after 24 hrs by MTT assay; format: functional, cell-based
[21] = Metal chelating activity of the compound assessed as formation of ferrous-compound complex at 50 uM after 20 mins by fluorescence emission spectral analysis
[22] = biological target: Amyloid-beta precursor protein (Homo sapiens) (UniProt P05067); assay: Potency index, ratio of compound effect to curcumin effect for inhibition of HFIP-pretreated amyloid beta (1 to 42) (unknown origin) self-induced aggregation at 20 uM

Sequence of Amyloid-beta precursor protein (Homo sapiens) (P05067 whole entry): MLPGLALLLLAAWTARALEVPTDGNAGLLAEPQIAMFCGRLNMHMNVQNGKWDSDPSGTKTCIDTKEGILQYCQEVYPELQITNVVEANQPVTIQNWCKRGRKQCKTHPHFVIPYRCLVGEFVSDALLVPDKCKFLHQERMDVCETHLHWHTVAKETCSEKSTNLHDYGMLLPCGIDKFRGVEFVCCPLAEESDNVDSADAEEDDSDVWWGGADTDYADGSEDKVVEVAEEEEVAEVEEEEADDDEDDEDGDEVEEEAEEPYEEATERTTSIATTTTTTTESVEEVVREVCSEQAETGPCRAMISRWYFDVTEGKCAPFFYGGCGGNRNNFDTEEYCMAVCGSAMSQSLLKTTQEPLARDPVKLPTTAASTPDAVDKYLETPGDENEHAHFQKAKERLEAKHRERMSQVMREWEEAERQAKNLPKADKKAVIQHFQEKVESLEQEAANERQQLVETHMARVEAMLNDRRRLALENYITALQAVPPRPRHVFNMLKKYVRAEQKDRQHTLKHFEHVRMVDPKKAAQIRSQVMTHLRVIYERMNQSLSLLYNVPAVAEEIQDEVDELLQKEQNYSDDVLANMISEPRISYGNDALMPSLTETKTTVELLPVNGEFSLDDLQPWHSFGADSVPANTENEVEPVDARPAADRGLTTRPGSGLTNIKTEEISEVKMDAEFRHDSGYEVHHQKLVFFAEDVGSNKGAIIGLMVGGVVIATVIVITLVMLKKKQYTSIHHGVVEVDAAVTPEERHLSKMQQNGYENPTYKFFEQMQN

| Compound | inhibition [3] | IC50 [4] | IC50 [6] | Ratio IC50 (Homo sapiens) | Activity [5] | Activity (PC-12 [7]) | also measured |
| --- | --- | --- | --- | --- | --- | --- | --- |
| NCCc1ccc(O)c(O)c1 [DOPAMINE] | – | – | – | – | – | – | Papp at 18 h, 25 ug/ml (physchem [1]): 0.8 ×10⁻⁶ cm/s; Papp at 16 h (physchem [2]): 1.32 ×10⁻⁶ cm/s |
| Cc1ccc(/N=C/c2coc3ccccc3c2=O)c(O)c1 | 75.2% | 6.26 µM | 14.3 µM | 0.44 | 2.26 equiv | Non-Toxic | – |
| O=c1c(/C=N/c2ccccc2O)coc2ccccc12 | 65.2% | 6.81 µM | 31.5 µM | 0.22 | 2.39 equiv | Non-Toxic | – |
| Cc1ccc2occ(/C=N/c3ncccc3O)c(=O)c2c1 | 63.4% | 7.35 µM | 2.03 µM | 3.62 | 2.03 equiv | Non-Toxic | – |
| Cc1ccc2occ(/C=N/c3cc([N+](=O)[O-])ccc3O)c(=O)c2c1 | 71.2% | 7.27 µM | 1.64 µM | 4.43 | 2.73 equiv | Non-Toxic | – |
| O=c1c(/C=N/c2ncccc2O)coc2ccc(Br)cc12 | 69.8% | 9.81 µM | 2.92 µM | 3.31 | 2.97 equiv | Non-Toxic | – |
| Cc1ccc(/N=C/c2coc3ccc(C)cc3c2=O)c(O)c1 | 45.6% | 20.8 µM | 21.4 µM | 0.97 | 2.48 equiv | Non-Toxic | – |
| Cc1ccc(O)c(/N=C/c2coc3ccc(C)cc3c2=O)c1 | 75.1% | 5.12 µM | 0.816 µM | 6.21 | 3.62 equiv | Non-Toxic | inhibition [8]: 60.3%; Activity [9]: Active; Activity (PC-12 [10]): inactive; Activity [11]: 0.55 molar ratio; Activity (PC-12 [12]): inactive; inhibition [13]: Active; Activity [14]: Active; Activity [15]: Active; Activity [16]: Active; Papp at 16 h (physchem [2]): 4.94 ×10⁻⁶ cm/s; Activity [17]: Active; Activity (PC-12 [18]): Dose-dependent effect; Activity [19]: Active; Activity (PC-12 [20]): Active; Activity [21]: Active |
| Oc1ccc(/C=C/c2cc(O)cc(O)c2)cc1 | 57.2% | – | – | – | – | – | inhibition [8]: 63.3%; inhibition [13]: Active |
| Oc1c(I)cc(Cl)c2cccnc12 | – | – | – | – | – | – | inhibition [8]: 47.7%; inhibition [13]: Active |
| CCn1cc(C(=O)O)c(=O)c2cc(F)c(N3CCNC(C)C3)c(F)c21 (configuration not stated) [LOMEFLOXACIN] | – | – | – | – | – | – | Papp at 18 h, 25 ug/ml (physchem [1]): 1.9 ×10⁻⁶ cm/s; Papp at 16 h (physchem [2]): 3.1 ×10⁻⁶ cm/s |
| Cc1ccc(O)c(/N=C/c2coc3ccc(Br)cc3c2=O)c1 | 89.5% | 7.14 µM | 1.12 µM | 6.38 | 0.784 equiv | Non-Toxic | Ratio [22]: 1.9 |
| Cc1c(C)c2c(c(C)c1O)CCC(C)(C(=O)O)O2 (configuration not stated) | – | – | – | – | – | – | Activity (PC-12 [12]): Active |
| O=c1c(/C=N/c2ncccc2O)coc2ccccc12 | 70.8% | 7.41 µM | 2.23 µM | – | 2.23 equiv | Non-Toxic | – |
| COc1ccc2[nH]cc(CCNC(C)=O)c2c1 | – | – | – | – | 2.05 equiv | – | – |

The next lines start with results.

| inhibition [3] | IC50 [4] | IC50 [6] | Compound | Ratio IC50 (Homo sapiens) | Activity [5] | Activity (PC-12 [7]) | also measured |
| --- | --- | --- | --- | --- | --- | --- | --- |
| 66.5% | 3.35 µM | 6.42 µM | O=c1c(/C=N/c2cc3ccccc3cc2O)coc2ccccc12 | 0.52 | 1.82 equiv | Non-Toxic | – |
| 51.5% | 1.42 µM | 1.78 µM | O=c1c(/C=N/c2ccc(Cl)cc2O)coc2ccccc12 | 0.8 | 2.36 equiv | Non-Toxic | – |
| 68.1% | 1.94 µM | 19.2 µM | O=c1c(/C=N/c2cc(Cl)ccc2O)coc2ccccc12 | 0.11 | 2.24 equiv | Non-Toxic | – |
| 87.6% | 3.18 µM | 1.29 µM | O=c1c(/C=N/c2ccc(Cl)cc2O)coc2ccc(Br)cc12 | 2.47 | 1.92 equiv | Non-Toxic | – |
| 79.5% | 1.65 µM | 14.5 µM | O=c1c(/C=N/c2cccc(Cl)c2O)coc2ccccc12 | 0.11 | 2.01 equiv | Non-Toxic | – |
| 64.5% | 4.65 µM | 1.78 µM | O=c1c(/C=N/c2cc(F)ccc2O)coc2ccccc12 | 2.61 | 2.6 equiv | Non-Toxic | – |
| 72.1% | 4.55 µM | 3.28 µM | O=c1c(/C=N/c2cc(Cl)ccc2O)coc2ccc(Br)cc12 | 1.39 | 2.16 equiv | Non-Toxic | – |
| 71.5% | 2.72 µM | 0.764 µM | O=c1c(/C=N/c2ccc(F)cc2O)coc2ccc(Br)cc12 | 3.56 | 2.73 equiv | Non-Toxic | – |
| 58.1% | 3.34 µM | 1.13 µM | Cc1ccc(O)c(/N=C/c2coc3ccccc3c2=O)c1 | 2.96 | 2.43 equiv | Non-Toxic | – |
| 79.1% | 3.09 µM | 0.825 µM | O=c1c(/C=N/c2cc(F)ccc2O)coc2ccc(Br)cc12 | 3.75 | 2.68 equiv | Non-Toxic | – |
| 71.9% | 2.15 µM | 0.634 µM | Cc1ccc2occ(/C=N/c3cc(Cl)ccc3O)c(=O)c2c1 | 3.39 | 2.61 equiv | Non-Toxic | – |
| 68.1% | 4.47 µM | 2.27 µM | O=c1c(/C=N/c2cccc(Cl)c2O)coc2ccc(Br)cc12 | 1.97 | 2.6 equiv | Non-Toxic | Papp at 16 h (physchem [2]): 4.81 ×10⁻⁶ cm/s |
| 87.3% | 3.83 µM | 2.34 µM | Cc1ccc2occ(/C=N/c3cc(F)ccc3O)c(=O)c2c1 | 1.64 | 2.92 equiv | Non-Toxic | – |
| 48.3% | 2.62 µM | 0.915 µM | Cc1ccc2occ(/C=N/c3ccc(Cl)cc3O)c(=O)c2c1 | 2.86 | 3.41 equiv | Non-Toxic | Activity (PC-12 [12]): Active; Papp at 16 h (physchem [2]): 5.57 ×10⁻⁶ cm/s |
